Assay results from PubChem BioAssay (NCI).
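Grown in 96-well plates, cells were treated for 48 hours with each compound at five concentrations. Insufficient inhibition: endpoint recorded as highest concentration tested. Here, GI50 denotes the concentration required for 50% inhibition of growth. TGI denotes the concentration required for complete inhibition of growth.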

Experiments:
Test in all cases: DTP human tumour cell line panel, 48 h
786-0 renal = system: 786-0 renal
A498 renal = system: A498 renal
A549 NSCLC = system: A549 NSCLC
ACHN renal = system: ACHN renal
BT-549 breast = system: BT-549 breast
CAKI-1 renal = system: CAKI-1 renal
COLO 205 colon = system: COLO 205 colon
DU-145 prostate = system: DU-145 prostate
EKVX NSCLC = system: EKVX NSCLC
HCC-2998 colon = system: HCC-2998 colon
HCT-116 colon = system: HCT-116 colon
HCT-15 colon = system: HCT-15 colon
HL-60(TB) leukemia = system: HL-60(TB) leukemia
HOP-62 NSCLC = system: HOP-62 NSCLC
HOP-92 NSCLC = system: HOP-92 NSCLC
HS 578T breast = system: HS 578T breast
HT29 colon = system: HT29 colon
K-562 leukemia = system: K-562 leukemia
KM12 colon = system: KM12 colon
LOX IMVI melanoma = system: LOX IMVI melanoma
M14 melanoma = system: M14 melanoma
MALME-3M melanoma = system: MALME-3M melanoma
MCF7 breast = system: MCF7 breast
MDA-MB-231 breast = system: MDA-MB-231 breast
MDA-MB-435 = system: MDA-MB-435
MDA-MB-468 breast = system: MDA-MB-468 breast
MOLT-4 leukemia = system: MOLT-4 leukemia
NCI-H226 lung = system: NCI-H226 lung
NCI-H23 lung = system: NCI-H23 lung
NCI-H460 lung = system: NCI-H460 lung
NCI-H522 lung = system: NCI-H522 lung
OVCAR-3 ovarian = system: OVCAR-3 ovarian
OVCAR-4 ovarian = system: OVCAR-4 ovarian
OVCAR-5 ovarian = system: OVCAR-5 ovarian
OVCAR-8 ovarian = system: OVCAR-8 ovarian
PC-3 prostate = system: PC-3 prostate
RPMI-8226 leukemia = system: RPMI-8226 leukemia
RXF 393 renal = system: RXF 393 renal
SF-268 CNS = system: SF-268 CNS
SF-295 CNS = system: SF-295 CNS
SF-539 CNS = system: SF-539 CNS
SK-MEL-2 melanoma = system: SK-MEL-2 melanoma
SK-MEL-28 melanoma = system: SK-MEL-28 melanoma
SK-MEL-5 melanoma = system: SK-MEL-5 melanoma
SK-OV-3 ovarian = system: SK-OV-3 ovarian
SN12C renal = system: SN12C renal
SNB-19 CNS = system: SNB-19 CNS
SNB-75 CNS = system: SNB-75 CNS
SR leukemia = system: SR leukemia
SW-620 colon = system: SW-620 colon
T-47D breast = system: T-47D breast
TK-10 renal = system: TK-10 renal
U251 CNS = system: U251 CNS
UACC-257 melanoma = system: UACC-257 melanoma
UACC-62 melanoma = system: UACC-62 melanoma

COc1cc(C2CC(c3ccc(Cl)cc3)=Nc3c(N)nc(N)nc3N2)ccc1Oc1nc(Nc2ccc(F)cc2)nc(N(C)C)n1 (stereo not given)
GI50 (786-0 renal): > 100 µM
TGI (786-0 renal): > 100 µM
GI50 (A498 renal): > 100 µM
TGI (A498 renal): > 100 µM
GI50 (A549 NSCLC): > 100 µM
TGI (A549 NSCLC): > 100 µM
GI50 (ACHN renal): > 100 µM
TGI (ACHN renal): > 100 µM
GI50 (BT-549 breast): 35.5 µM
TGI (BT-549 breast): > 100 µM
GI50 (CAKI-1 renal): 3.38 µM
TGI (CAKI-1 renal): > 100 µM
GI50 (COLO 205 colon): > 100 µM
TGI (COLO 205 colon): > 100 µM
GI50 (DU-145 prostate): > 100 µM
TGI (DU-145 prostate): > 100 µM
GI50 (EKVX NSCLC): > 100 µM
TGI (EKVX NSCLC): > 100 µM
GI50 (HCC-2998 colon): 45.3 µM
TGI (HCC-2998 colon): > 100 µM
GI50 (HCT-116 colon): 12.5 µM
TGI (HCT-116 colon): > 100 µM
GI50 (HCT-15 colon): 76.6 µM
TGI (HCT-15 colon): > 100 µM
GI50 (HL-60(TB) leukemia): 44.7 µM
TGI (HL-60(TB) leukemia): > 100 µM
GI50 (HOP-62 NSCLC): > 100 µM
TGI (HOP-62 NSCLC): > 100 µM
GI50 (HOP-92 NSCLC): 3 µM
TGI (HOP-92 NSCLC): > 100 µM
GI50 (HS 578T breast): 84.8 µM
TGI (HS 578T breast): > 100 µM
GI50 (HT29 colon): 29.4 µM
TGI (HT29 colon): > 100 µM
GI50 (K-562 leukemia): 4.5 µM
TGI (K-562 leukemia): > 100 µM
GI50 (KM12 colon): 40.1 µM
TGI (KM12 colon): > 100 µM
GI50 (LOX IMVI melanoma): 47.8 µM
TGI (LOX IMVI melanoma): > 100 µM
GI50 (M14 melanoma): > 100 µM
TGI (M14 melanoma): > 100 µM
GI50 (MALME-3M melanoma): > 100 µM
TGI (MALME-3M melanoma): > 100 µM
GI50 (MCF7 breast): 9.91 µM
TGI (MCF7 breast): > 100 µM
GI50 (MDA-MB-231 breast): 6.73 µM
TGI (MDA-MB-231 breast): > 100 µM
GI50 (MDA-MB-435): > 100 µM
TGI (MDA-MB-435): > 100 µM
GI50 (MDA-MB-468 breast): 17.8 µM
TGI (MDA-MB-468 breast): > 100 µM
GI50 (MOLT-4 leukemia): 8.54 µM
TGI (MOLT-4 leukemia): > 100 µM
GI50 (NCI-H226 lung): > 100 µM
TGI (NCI-H226 lung): > 100 µM
GI50 (NCI-H23 lung): > 100 µM
TGI (NCI-H23 lung): > 100 µM
GI50 (NCI-H460 lung): 42.3 µM
TGI (NCI-H460 lung): > 100 µM
GI50 (NCI-H522 lung): > 100 µM
TGI (NCI-H522 lung): > 100 µM
GI50 (OVCAR-3 ovarian): > 100 µM
TGI (OVCAR-3 ovarian): > 100 µM
GI50 (OVCAR-4 ovarian): 18.9 µM
TGI (OVCAR-4 ovarian): > 100 µM
GI50 (OVCAR-5 ovarian): > 100 µM
TGI (OVCAR-5 ovarian): > 100 µM
GI50 (OVCAR-8 ovarian): > 100 µM
TGI (OVCAR-8 ovarian): > 100 µM
GI50 (PC-3 prostate): 6.16 µM
TGI (PC-3 prostate): > 100 µM
GI50 (RPMI-8226 leukemia): 26.4 µM
TGI (RPMI-8226 leukemia): > 100 µM
GI50 (RXF 393 renal): 2.46 µM
TGI (RXF 393 renal): > 100 µM
GI50 (SF-268 CNS): > 100 µM
TGI (SF-268 CNS): > 100 µM
GI50 (SF-295 CNS): > 100 µM
TGI (SF-295 CNS): > 100 µM
GI50 (SF-539 CNS): > 100 µM
TGI (SF-539 CNS): > 100 µM
GI50 (SK-MEL-2 melanoma): > 100 µM
TGI (SK-MEL-2 melanoma): > 100 µM
GI50 (SK-MEL-28 melanoma): > 100 µM
TGI (SK-MEL-28 melanoma): > 100 µM
GI50 (SK-MEL-5 melanoma): 17.2 µM
TGI (SK-MEL-5 melanoma): 52 µM
GI50 (SK-OV-3 ovarian): > 100 µM
TGI (SK-OV-3 ovarian): > 100 µM
GI50 (SN12C renal): > 100 µM
TGI (SN12C renal): > 100 µM
GI50 (SNB-19 CNS): > 100 µM
TGI (SNB-19 CNS): > 100 µM
GI50 (SNB-75 CNS): 3.24 µM
TGI (SNB-75 CNS): > 100 µM
GI50 (SR leukemia): 3.41 µM
TGI (SR leukemia): > 100 µM
GI50 (SW-620 colon): > 100 µM
TGI (SW-620 colon): > 100 µM
GI50 (T-47D breast): > 100 µM
TGI (T-47D breast): > 100 µM
GI50 (TK-10 renal): > 100 µM
TGI (TK-10 renal): > 100 µM
GI50 (U251 CNS): > 100 µM
TGI (U251 CNS): > 100 µM
GI50 (UACC-257 melanoma): > 100 µM
TGI (UACC-257 melanoma): > 100 µM
GI50 (UACC-62 melanoma): > 100 µM
TGI (UACC-62 melanoma): > 100 µM
